Measured values taken from ChEMBL document CHEMBL1142045, “Carbonic anhydrase inhibitors. Interaction of isozymes I, II, IV, V, and IX with organic phosphates and phosphonates” (Bioorg Med Chem Lett, 2005).

How the values were obtained:
[1] = molecular target: Carbonic anhydrase 2 (Homo sapiens, UniProt P00918); assay: Binding affinity towards human cytosolic carbonic anhydrase II
[2] = molecular target: Carbonic anhydrase 1 (Homo sapiens) (UniProt P00915); assay: Activation constant towards human cytosolic carbonic anhydrase I; Activator
[3] = molecular target: Carbonic anhydrase 4 (Homo sapiens, UniProt P22748); assay: Binding affinity towards human membrane associated carbonic anhydrase IV
[4] = molecular target: Carbonic anhydrase 9 (Homo sapiens, UniProt Q16790); assay: Binding affinity owards recombinant human transmembrane carbonic anhydrase IX
[5] = molecular target: Carbonic anhydrase 5A, mitochondrial (Homo sapiens, UniProt P35218); assay: Binding affinity towards recombinant human mitochondrial carbonic anhydrase V
Chain of Carbonic anhydrase 5A, mitochondrial (P35218 whole entry): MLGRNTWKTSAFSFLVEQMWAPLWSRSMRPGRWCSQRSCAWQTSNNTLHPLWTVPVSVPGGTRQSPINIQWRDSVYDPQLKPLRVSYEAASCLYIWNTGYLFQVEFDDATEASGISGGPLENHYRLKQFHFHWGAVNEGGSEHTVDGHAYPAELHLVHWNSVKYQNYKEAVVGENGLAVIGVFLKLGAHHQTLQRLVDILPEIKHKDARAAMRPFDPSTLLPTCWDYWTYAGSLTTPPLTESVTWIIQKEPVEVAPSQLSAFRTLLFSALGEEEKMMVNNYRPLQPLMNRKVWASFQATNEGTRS

Chain of Carbonic anhydrase 4 (P22748 whole entry): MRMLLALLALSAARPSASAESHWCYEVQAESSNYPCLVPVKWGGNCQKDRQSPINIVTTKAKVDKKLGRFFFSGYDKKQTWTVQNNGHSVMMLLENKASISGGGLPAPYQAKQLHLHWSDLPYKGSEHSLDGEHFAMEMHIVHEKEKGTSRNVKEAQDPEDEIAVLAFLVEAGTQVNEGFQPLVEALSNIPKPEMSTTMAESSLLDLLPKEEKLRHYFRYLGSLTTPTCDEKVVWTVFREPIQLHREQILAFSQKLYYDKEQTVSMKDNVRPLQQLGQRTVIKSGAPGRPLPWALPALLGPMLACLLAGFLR
Chain of Carbonic anhydrase 1 (Homo sapiens) (P00915 2-261 limits assumed): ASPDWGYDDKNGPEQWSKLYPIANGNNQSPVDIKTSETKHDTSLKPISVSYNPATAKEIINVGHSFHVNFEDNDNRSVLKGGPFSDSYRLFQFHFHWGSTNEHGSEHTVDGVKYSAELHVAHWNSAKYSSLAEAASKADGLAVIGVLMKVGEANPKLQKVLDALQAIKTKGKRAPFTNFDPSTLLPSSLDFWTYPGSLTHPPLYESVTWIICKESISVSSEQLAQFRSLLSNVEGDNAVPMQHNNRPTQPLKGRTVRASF

SMILES	Ki [1] [µM]	KA [2] [mM]	Ki [3] [µM]	Ki [4] [µM]	Ki [5] [µM]
CC(OP(=O)(O)O)C(N)C(=O)O (configuration not stated)	1080	0.5	3180	1230	850
N[C@@H](COP(=O)(O)O)C(=O)O [DEXFOSFOSERINE]	420	0.1	4260	920	360
O=C(O)P(=O)(O)O [FOSCARNET]	–	0.012	–	–	41700
O=P(O)(O)CP(=O)(O)O [MEDRONIC ACID]	1250	0.2	5340	860	730
O=C(O)C[C@H](NC(=O)CP(=O)(O)O)C(=O)O [PALA]	7.8	0.1	0.079	2250	370
O=P(O)(O)c1ccccc1 [PHENYLPHOSPHONIC ACID]	0.099	0.0001	5.4	2210	90
